The supplement of paper PMC11665569
± gives the standard deviation of the averaged measurements.

Tests used:
SW1573 = test: relative viability (fraction of vehicle control); higher = more viable / less inhibited; details: treatment time: 5 days
Protocol: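 CCK-8 viability of SW1573 cells transfected with control, YAP/TAZ or TEAD1-4 siRNAs and treated with KRAS G12C inhibitors for 5 days. Values are normalised to vehicle control.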

KYSE410 = test: as above; details: treatment time: 5 days
Protocol: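 CCK-8 viability of KYSE410 cells transfected with control, YAP/TAZ or TEAD1-4 siRNAs and treated with KRAS G12C inhibitors for 5 days. Values are normalised to vehicle control.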

C=CC(=O)N1CCN(c2nc(=O)n(-c3c(C)ccnc3C(C)C)c3nc(-c4c(O)cccc4F)c(F)cc23)[C@@H](C)C1 [AMG510]
relative viability
Details	KYSE410	SW1573
log10 concentration (uM): 0, siRNA knockdown: TEAD1-4 siRNA 1	0.586 ± 0.025	–
log10 concentration (uM): 0, siRNA knockdown: TEAD1-4 siRNA 2	0.488 ± 0.038	–
log10 concentration (uM): 0, siRNA knockdown: YAP/TAZ siRNA 1	0.416 ± 0.019	–
log10 concentration (uM): 0, siRNA knockdown: YAP/TAZ siRNA 2	0.353 ± 0.036	–
log10 concentration (uM): 0, siRNA knockdown: negative control siRNA	0.695 ± 0.0059	–
log10 concentration (uM): 1, siRNA knockdown: TEAD1-4 siRNA 1	0.181 ± 0.014	–
log10 concentration (uM): 1, siRNA knockdown: TEAD1-4 siRNA 2	0.118 ± 0.015	–
log10 concentration (uM): 1, siRNA knockdown: YAP/TAZ siRNA 1	0.141 ± 0.017	–
log10 concentration (uM): 1, siRNA knockdown: YAP/TAZ siRNA 2	0.137 ± 0.012	–
log10 concentration (uM): 1, siRNA knockdown: negative control siRNA	0.382 ± 0.017	–
log10 concentration (uM): 1.301029996, siRNA knockdown: TEAD1-4 siRNA 1	0.0525 ± 0.013	–
log10 concentration (uM): 1.301029996, siRNA knockdown: TEAD1-4 siRNA 2	0.0471 ± 0.013	–
log10 concentration (uM): 1.301029996, siRNA knockdown: YAP/TAZ siRNA 1	0.0378 ± 0.0039	–
log10 concentration (uM): 1.301029996, siRNA knockdown: YAP/TAZ siRNA 2	0.0518 ± 0.0073	–
log10 concentration (uM): 1.301029996, siRNA knockdown: negative control siRNA	0.164 ± 0.0062	–
log10 concentration (uM): -1, siRNA knockdown: TEAD1-4 siRNA 1	0.691 ± 0.11	–
log10 concentration (uM): -1, siRNA knockdown: TEAD1-4 siRNA 2	0.63 ± 0.13	–
log10 concentration (uM): -1, siRNA knockdown: YAP/TAZ siRNA 1	0.59 ± 0.021	–
log10 concentration (uM): -1, siRNA knockdown: YAP/TAZ siRNA 2	0.489 ± 0.013	–
log10 concentration (uM): -1, siRNA knockdown: negative control siRNA	0.749 ± 0.017	–
log10 concentration (uM): -1.30103, siRNA knockdown: TEAD1-4 siRNA 1	0.727 ± 0.12	–
log10 concentration (uM): -1.30103, siRNA knockdown: TEAD1-4 siRNA 2	0.664 ± 0.11	–
log10 concentration (uM): -1.30103, siRNA knockdown: YAP/TAZ siRNA 1	0.643 ± 0.04	–
log10 concentration (uM): -1.30103, siRNA knockdown: YAP/TAZ siRNA 2	0.522 ± 0.024	–
log10 concentration (uM): -1.30103, siRNA knockdown: negative control siRNA	0.775 ± 0.015	–
log10 concentration (uM): -2, siRNA knockdown: TEAD1-4 siRNA 1	0.946 ± 0.078	–
log10 concentration (uM): -2, siRNA knockdown: TEAD1-4 siRNA 2	1.02 ± 0.076	–
log10 concentration (uM): -2, siRNA knockdown: YAP/TAZ siRNA 1	0.841 ± 0.058	–
log10 concentration (uM): -2, siRNA knockdown: YAP/TAZ siRNA 2	0.713 ± 0.012	–
log10 concentration (uM): -2, siRNA knockdown: negative control siRNA	0.884 ± 0.013	–
log10 concentration (uM): -2.30103, siRNA knockdown: TEAD1-4 siRNA 1	0.967 ± 0.075	–
log10 concentration (uM): -2.30103, siRNA knockdown: TEAD1-4 siRNA 2	0.941 ± 0.14	–
log10 concentration (uM): -2.30103, siRNA knockdown: YAP/TAZ siRNA 1	0.929 ± 0.025	0.437 ± 0.046
log10 concentration (uM): -2.30103, siRNA knockdown: YAP/TAZ siRNA 2	0.7753 ± 0.0064	0.37 ± 0.013
log10 concentration (uM): -2.30103, siRNA knockdown: negative control siRNA	0.9373 ± 0.0086	0.934 ± 0.035
log10 concentration (uM): -3, siRNA knockdown: TEAD1-4 siRNA 1	1.21 ± 0.052	0.815 ± 0.073
log10 concentration (uM): -3, siRNA knockdown: TEAD1-4 siRNA 2	1.19 ± 0.12	0.893 ± 0.12
log10 concentration (uM): -3, siRNA knockdown: YAP/TAZ siRNA 1	0.996 ± 0.023	0.615 ± 0.013
log10 concentration (uM): -3, siRNA knockdown: YAP/TAZ siRNA 2	0.961 ± 0.039	0.587 ± 0.048
log10 concentration (uM): -3, siRNA knockdown: negative control siRNA	0.953 ± 0.019	1 ± 0.077
log10 concentration (uM): -4, siRNA knockdown: TEAD1-4 siRNA 1	1.08 ± 0.031	0.98 ± 0.016
log10 concentration (uM): -4, siRNA knockdown: TEAD1-4 siRNA 2	1.32 ± 0.087	0.974 ± 0.12
log10 concentration (uM): -4, siRNA knockdown: YAP/TAZ siRNA 1	1.03 ± 0.039	0.969 ± 0.063
log10 concentration (uM): -4, siRNA knockdown: YAP/TAZ siRNA 2	0.998 ± 0.016	0.928 ± 0.057
log10 concentration (uM): -4, siRNA knockdown: negative control siRNA	0.951 ± 0.013	1.02 ± 0.079
